Assays:
[1] = target: N-methyl-D-aspartate (NMDA) receptor, MK-801 binding site; assay: radioligand displacement of [3H]-MK801; settings: read-out: IC50 (μM) ^a; MK-801 channel site
[2] = target: N-methyl-D-aspartate (NMDA) receptor, MK-801 binding site; assay: radioligand displacement of [3H]-MK801; settings: read-out: Ki (μM) ^a; MK-801 channel site

| Compound | IC50 [1] [µM] | Ki [2] [µM] |
| --- | --- | --- |
| N[C@]1(c2ccccc2Cl)CCC[C@@H](O)C1=O [4b, (2S,6R)-HNK] | > 100 | > 100 |
| N[C@@]1(c2ccccc2Cl)CC[C@H](O)CC1=O [9a, (2R,5S)-HNK] | > 100 | > 100 |
| N[C@@]1(c2ccccc2Cl)CC[C@@H](O)CC1=O [8a, (2R,5R)-HNK] | > 100 | > 100 |
| N[C@@]1(c2ccccc2Cl)C[C@@H](O)CCC1=O [10a, (2R,4S)-HNK] | > 100 | > 100 |
| N[C@]1(c2ccccc2Cl)CC[C@H](O)CC1=O [8b, (2S,5S)-HNK] | > 100 | > 100 |
| N[C@]1(c2ccccc2Cl)CCC=CC1=O [3b, (S)-DHNK] | 42 | 29.7 |
| N[C@@]1(c2ccccc2Cl)CCC[C@H](O)C1=O [4a, (2R,6S)-HNK] | > 100 | > 100 |
| (+)-MK-801 [reference compound] | 0.00493 | 0.00348 |
| N[C@@]1(c2ccccc2Cl)C[C@H](O)CCC1=O [11a, (2R,4R)-HNK] | > 100 | > 100 |
| N[C@]1(c2ccccc2Cl)CCC[C@H](O)C1=O [7b, (2S,6S)-HNK] | 10.4 | 7.34 |
| N[C@]1(c2ccccc2Cl)C[C@@H](O)CCC1=O [11b, (2S,4S)-HNK] | > 100 | > 100 |
| N[C@@]1(c2ccccc2Cl)CCC=CC1=O [3a, (R)-DHNK] | 59.7 | 42.1 |
| CNC1(c2ccccc2Cl)CCCCC1=O (racemic) [compound 1, (R,S)-ketamine] | 0.35 | 0.25 |
| N[C@@]1(c2ccccc2Cl)CCC[C@@H](O)C1=O [7a, (2R,6R)-HNK] | > 100 | > 100 |
| N[C@]1(c2ccccc2Cl)C[C@H](O)CCC1=O [10b, (2S,4R)-HNK] | > 100 | > 100 |
| N[C@]1(c2ccccc2Cl)CC[C@@H](O)CC1=O [9b, (2S,5R)-HNK] | > 100 | > 100 |
